Tests used:
mice = experiment: formalin paw test; assay type: in vivo, mouse
Procedure: AAK1 homozygous (−/−) and their wild-type (+/+) littermates were tested using the formalin paw test in order to assess their acute and tonic nociceptive responses. For these tests, Automatic Nociception Analyzers (purchased from the Ozaki lab at University of California, San Diego) were used. A metal band was placed around the left hind paw of each mouse 30 minutes prior to testing. After the 30-minute acclimation period, 20 μl of 5% formalin is subcutaneously injected in the dorsal surface of the left hind paw. Mice were individually housed in cylindrical chambers for 45 minutes. Fresh 5% formalin solution was prepared by diluting formaldehyde (Formalde-fresh 20%, Fisher Scientific, Fair Lawn, N.J.) with distilled water. Investigatory compounds were administered 30 minutes prior to formalin injection.
A computer recorded flinches per minute, total flinches for phase I (acute phase=first 8 minutes), and total flinches for phase II (tonic phase=time between minutes 20-40) through an electromagnetic field. See Yaksh T L, Ozaki G, McCumber D, Rathbun M, Svensson C, Malkmus S, Yaksh M C. An automated flinch detecting system for use in the formalin nociceptive bioassay. J Appl Physiol., 2001; 90:2386-402.
The same test was used to confirm that the administration of an AAK1 inhibitor can also affect pain response.
A compound of the disclosure was tested in this assay at different doses. Gabapentin and pregabalin were used as positive controls. Results are shown below in Table 2, wherein the effect of gabapentin at 200 mg/kg is considered a 100% response, the % response for the other compounds is relative to the 200 mg/kg dose of gabapentin, “sc” means subcutaneous administration.

GST-Xa-hAAK1 = target: T1, GST-Xa-hAAK1 (Homo sapiens, UniProt Q2M2I8); experiment: AAK1 Kinase Assay; assay type: biochemical; conditions: ATP 22 μM
T1 construct: made in house
Procedure: The assays were performed in U-bottom 384-well plates. The final assay volume was 30 μl prepared from 15 μl additions of enzyme and substrates (fluoresceinated peptide (5-FAM)-Aha-[…]-NH2 and ATP) and test compounds in assay buffer (10 mM Tris-HCL pH 7.4, 10 mM MgCl2, 0.01% Tween-20 and 1.0 mM DTT). The reactions were initiated by the combination of bacterially expressed, GST-Xa-hAAK1 with substrates and test compounds. The reactions were incubated at room temperature for 3 hours and terminated by adding 60 μl of 35 mM EDTA buffer to each sample. The reactions were analyzed on the Caliper LabChip 3000 (Caliper, Hopkinton, Mass.) by electrophoretic separation of the fluorescent substrate and phosphorylated product. […] The final concentration of reagents in the assays are ATP, 22 μM; (5-FAM)-Aha-[…]-NH2, 1.5 μM; GST-Xa-hAAK1, 3.5 nM; and DMSO, 1.6%. Dose response curves were generated to determine the concentration required inhibiting 50% of kinase activity (IC50). Compounds were dissolved at 10 mM in dimethylsulfoxide (DMSO) and evaluated at eleven concentrations. IC50 values were derived by non-linear regression analysis.

[1] = target: AAK1 (full length human) in HEK293F cells (Homo sapiens, UniProt Q2M2I8); experiment: HEK293F Cell-Based Assay (phospho-mu2 Western blot); conditions: 3 hours
Procedure: HEK293F cells were cultured in media containing DMEM (Gibco, cat. #11965), 10% FBS (SAFC Biosciences, cat. #12103C), 1×GPS (glutamine, penicillin and streptomycin). On day one, cells were plated on a 10 cm dish so that they are ˜80% confluent at time of transfection. Roughly 12 million cells were in a 10 cm dish at time of transfection. On day two, each dish was transfected with 48 ug DNA and 144 ul Lipofectamine 2000 (Invitrogen, cat. #11668-019). The DNA was comprised of a mixture (per 10 cm dish) containing 3 ug AAK1/HA/pIRES (full length human, NCBI accession no. NP_055726.2), 45 μg Flag/AP2MI/pcDNA (full length human), and 1.5 ml OPTI-MEM. The Lipofectamine 2000 is made up of a mixture (per 10 cm dish) containing 144 μl Lipofectamine 2000 and 1.5 ml OPTI-MEM. Each mixture was transferred to individual 15 ml tubes and incubated at RT for 5 minutes, and then the two mixes were combined and incubated at RT for 20 minutes. Growth media was then aspirated from each 10 cm plate and replaced with 10 ml of DMEM+10% FBS (no GPS). Finally, 3 ml DNA/Lipofectamine mix was added to each 10 cm dish and mix gently followed by incubate of plate overnight at 37° C. and 5% CO2.
On day three, compounds were diluted in 100% DMSO at 1000× final concentration, followed by 3-fold serial dilutions for a total of 5 concentrations tested. Four compounds were tested per 10 cm dish. One ul of each compound dilution was then pipetted into a deep-well, 96-well plate, followed by addition of 500 μl DMEM+0.5% FBS into each well for a 2× final concentration of each compound. Cells were resuspended in a 10 cm dish by simple pipetting (HEK293 cells come off the plate that easy at this point) and then transferred to a 50 ml conical tube and pelleted by centrifugation at 1000 rpm for 5 min. Cell pellets were then resuspended in 2.75 ml DMEM+0.5% FBS per 10 cm dish and 100 μl of cell suspension transferred into each well of 96-well TC plate. Finally, 100 μl of 2× compound diluted in DMEM+0.5% FBS was then added into wells containing cell suspension for a 1× final concentration. Plates were then incubated at 37° C. and 5% CO2 for 3 hours followed by transferring of cell suspensions from each well into 12-tube PCR strips. The PCR strips were spun in a tip rack at 1000 rpm for 5 minutes to pellet cells and media was then removed by pipetting without disturbing the cell pellet.
To prepare for Western Blot analysis, cell pellets were resuspend in 40 ul 1× LDS-PAGE sample buffer (Invitrogen, cat. # NP0008)+2× Halt phophatase and protease inhibitor cocktail (Thermo Scientific, cat. #1861284), followed by sonicating each with microtip sonicator set at 5 for 8-10 seconds. Five ul of 10× NuPage Sample Reducing Agent (with 50 mM DTT) was to each sample followed by heat denaturing at 70 C for 10 min on PCR machine. A total of 10 μl per sample was loaded into each lane of a 4-20% Tris-Glycine Criterion 26-well gel (Biorad, cat. #345-0034) for the phospho-mu2 blot and 10 μl per lane in a 4-12% Bis-Tris (+MES buffer) NuPAGE 26-well gel (Invitrogen, cat. # WG1403BX10) for the mu2 blot. For controls, 2 ng of phospho-mu2 or 20 ng mu2/Flag proteins were loaded in the last well of each gel. After SDS-PAGE, samples on each gel were transferred to PVDF membrane using an iBlot and membranes were blocked for one hour in TBST+5% milk, followed by wash 3× for 5-10 min with TBST. Criterion gels were probed with rabbit anti-phospho-mu2 (1:5000; a rabbit polyclonal antibody produced by New England Peptide and affinity purified at Lexicon) in TBST+5% BSA, whereas, NuPAGE gels were probed with mouse anti-Flag (1:500; Sigma, cat. # F1804) in TBST+5% milk, and these primary antibodies were incubated overnight at 4° C. on a rocker. […]

PC12 cells = conditions: Kuai et al. 2011; cited from earlier work
[2] = 50 mg/kg sc, relative to gabapentin 200 mg/kg = 100% response

Chain of AAK1 (full length human) in HEK293F cells (Q2M2I8 1-822 limits assumed): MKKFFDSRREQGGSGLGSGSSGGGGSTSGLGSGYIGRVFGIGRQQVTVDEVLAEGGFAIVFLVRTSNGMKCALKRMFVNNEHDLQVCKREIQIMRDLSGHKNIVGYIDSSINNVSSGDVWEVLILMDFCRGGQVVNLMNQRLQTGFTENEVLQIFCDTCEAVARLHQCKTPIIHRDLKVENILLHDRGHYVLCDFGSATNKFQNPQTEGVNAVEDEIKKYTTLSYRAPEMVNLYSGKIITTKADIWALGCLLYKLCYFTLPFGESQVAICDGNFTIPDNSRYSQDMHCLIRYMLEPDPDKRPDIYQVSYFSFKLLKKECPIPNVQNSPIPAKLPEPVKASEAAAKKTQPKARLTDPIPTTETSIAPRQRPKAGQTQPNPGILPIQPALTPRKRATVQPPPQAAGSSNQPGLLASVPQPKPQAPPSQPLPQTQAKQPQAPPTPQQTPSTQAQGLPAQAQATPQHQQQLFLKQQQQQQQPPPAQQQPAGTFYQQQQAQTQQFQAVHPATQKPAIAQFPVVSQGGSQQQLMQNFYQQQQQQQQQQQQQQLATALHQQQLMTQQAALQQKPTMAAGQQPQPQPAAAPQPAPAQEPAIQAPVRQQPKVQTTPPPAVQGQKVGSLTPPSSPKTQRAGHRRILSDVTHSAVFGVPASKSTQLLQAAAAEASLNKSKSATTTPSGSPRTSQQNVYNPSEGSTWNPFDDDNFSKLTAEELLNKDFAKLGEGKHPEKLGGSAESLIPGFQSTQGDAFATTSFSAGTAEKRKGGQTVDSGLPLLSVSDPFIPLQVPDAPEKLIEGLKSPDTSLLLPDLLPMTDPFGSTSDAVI
T1 sequence (Q2M2I8 whole entry): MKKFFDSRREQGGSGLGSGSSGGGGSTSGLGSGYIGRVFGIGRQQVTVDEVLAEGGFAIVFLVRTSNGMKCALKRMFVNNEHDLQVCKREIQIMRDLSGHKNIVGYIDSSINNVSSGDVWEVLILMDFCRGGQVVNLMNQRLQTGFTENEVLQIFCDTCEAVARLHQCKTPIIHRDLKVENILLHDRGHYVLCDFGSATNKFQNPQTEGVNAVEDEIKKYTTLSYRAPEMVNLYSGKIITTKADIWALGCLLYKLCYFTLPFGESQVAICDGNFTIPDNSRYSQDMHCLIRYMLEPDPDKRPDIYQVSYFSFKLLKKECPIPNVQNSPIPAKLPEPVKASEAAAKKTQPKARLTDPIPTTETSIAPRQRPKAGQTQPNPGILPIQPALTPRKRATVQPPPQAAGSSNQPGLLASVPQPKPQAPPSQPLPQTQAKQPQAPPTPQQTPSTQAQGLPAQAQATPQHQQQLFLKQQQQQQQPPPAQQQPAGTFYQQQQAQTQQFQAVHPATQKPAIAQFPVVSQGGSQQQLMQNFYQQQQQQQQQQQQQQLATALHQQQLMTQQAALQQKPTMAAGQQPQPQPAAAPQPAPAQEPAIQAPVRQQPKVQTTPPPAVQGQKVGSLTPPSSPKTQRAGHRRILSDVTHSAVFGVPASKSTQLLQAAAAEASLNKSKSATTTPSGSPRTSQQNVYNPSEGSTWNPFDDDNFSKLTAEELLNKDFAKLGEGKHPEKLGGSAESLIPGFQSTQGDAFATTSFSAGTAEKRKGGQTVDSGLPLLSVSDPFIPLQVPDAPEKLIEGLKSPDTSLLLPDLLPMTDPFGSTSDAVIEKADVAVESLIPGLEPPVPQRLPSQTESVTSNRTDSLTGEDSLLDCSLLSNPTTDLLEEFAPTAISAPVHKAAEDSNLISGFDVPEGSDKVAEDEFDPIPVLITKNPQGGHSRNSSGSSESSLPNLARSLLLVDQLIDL

SMILES: CC(C)C[C@@H](N)COc1ccc2c(c1)OCc1cnccc1-2 [Compound 5, (R)-1-(5H-chromeno[3,4-c]pyridin-8-yloxy)-4-methylpentan-2-amine]
- Response (mice; 10 mg/kg sc, relative to gabapentin 200 mg/kg = 100% response): 45%
- Response (mice; 30 mg/kg sc, relative to gabapentin 200 mg/kg = 100% response): 88%

SMILES: CC(=O)Nc1cc2c(cn1)COc1c-2ccc(OC[C@@H](N)CC(C)C)c1Cl [Example 63, (S)—N-(8-((2-amino-4-methylpentyl)oxy)-7-chloro-5H-chromeno[3,4-c]pyridin-2-yl)acetamide]
- IC50 (GST-Xa-hAAK1; IC50 ranges): < 1 nM
- IC50 ([1]; IC50 ranges): < 1 nM

SMILES: CC(C)C[C@H](N)COc1ccc2c(c1)OCc1cnc(NC(=O)OC(C)C)cc1-2 [Example 64, (S)-isopropyl (8-((2-amino-4-methylpentyl)oxy)-5H-chromeno[3,4-c]pyridin-2-yl)carbamate]
- IC50 (GST-Xa-hAAK1; numeric values): 5.2 nM
- IC50 ([1]; numeric values): 15 nM

SMILES: COC(=O)Nc1cc2c(cn1)COc1cc(OCC(C)(N)CC(C)C)ccc1-2 (stereo not shown) [Example 67, methyl (8-((2-amino-2,4-dimethylpentyl)oxy)-5H-chromeno[3,4-c]pyridin-2-yl)carbamate]
- IC50 (GST-Xa-hAAK1; IC50 ranges): 1 to 10 nM
- IC50 ([1]; IC50 ranges): 10 to 100 nM

SMILES: CCC(=O)Nc1cc2c(cn1)COc1cc(OC[C@@H](N)CC(C)C)ccc1-2 [Example 73, (S)—N-(8-((2-amino-4-methylpentyl)oxy)-5H-chromeno[3,4-c]pyridin-2-yl)propionamide]
- IC50 (GST-Xa-hAAK1; IC50 ranges): 1 to 10 nM
- IC50 ([1]; IC50 ranges): 10 to 100 nM

SMILES: COC(=O)Nc1cc2c(cn1)COc1c-2ccc(OC[C@@H](N)CC(C)C)c1Cl [Example 74, (S)-methyl (8-((2-amino-4-methylpentyl)oxy)-7-chloro-5H-chromeno[3,4-c]pyridin-2-yl)carbamate]
- IC50 (GST-Xa-hAAK1; IC50 ranges): 1 to 10 nM
- IC50 ([1]; IC50 ranges): < 1 nM

SMILES: CCOC(=O)Nc1cc2c(cn1)COc1cc(OC[C@@H](N)CC(C)C)ccc1-2 [Example 77, (S)-ethyl (8-((2-amino-4-methylpentyl)oxy)-5H-chromeno[3,4-c]pyridin-2-yl)carbamate]
- IC50 (GST-Xa-hAAK1; IC50 ranges): 1 to 10 nM
- IC50 ([1]; IC50 ranges): 1 to 10 nM

SMILES: CCOC(=O)Nc1cc2c(cn1)COc1cc(OC[C@@](C)(N)CC(C)C)ccc1-2 [Example 81, (S)-ethyl (8-((2-amino-2,4-dimethylpentyl)oxy)-5H-chromeno[3,4-c]pyridin-2-yl)carbamate]
- IC50 (GST-Xa-hAAK1; IC50 ranges): < 1 nM
- IC50 ([1]; IC50 ranges): < 1 nM

SMILES: COC(=O)Nc1ncc2c(c1Cl)-c1cc(Cl)c(OC[C@@](C)(N)CC(C)C)cc1OC2 [Example 82, (S)-methyl (8-((2-amino-2,4-dimethylpentyl)oxy)-1,9-dichloro-5H-chromeno[3,4-c]pyridin-2-yl)carbamate]
- IC50 (GST-Xa-hAAK1; IC50 ranges): 1 to 10 nM
- IC50 ([1]; IC50 ranges): 1 to 10 nM

SMILES: COC(=O)[C@@]1(O)C[C@H]2O[C@]1(C)n1c3ccccc3c3c4c(c5c6ccccc6n2c5c31)C(=O)NC4 [Example K252a, K252a]
- effect on Neuregulin-1 induced neurite outgrowth (PC12 cells): potentiation of Neuregulin-1 induced neurite outgrowth

SMILES: NCC1(CC(=O)O)CCCCC1 [Gabapentin]
- Response (mice; [2]): 60%
- Response (mice; 200 mg/kg sc, considered a 100% response): 100%

SMILES: CC(C)C[C@H](CN)CC(=O)O [Pregabalin]
- Response (mice; [2]): 90%

From patent US20160222021A1, “ARYL ETHER-BASE KINASE INHIBITORS” (BRISTOL-MYERS SQUIBB COMPANY, priority 2013, published 2016)
